≈ marks a conversion by molar mass, not a printed value. Where two headings read alike, the source gives them in different places.

The term solubility denotes how much of the substance goes into solution per volume.

Holding throughout (format): physicochemical
The nature of data set [1]: Dissolution study with DHEA concentration measured by HPLC over time. The following applies: for solubility: aqueous dissolution study (pH 6.8 buffer, ambient temperature). As to the method:
High performance liquid chromatography (HPLC) analyses were carried out on an Agilent 1100 series instrument equipped with a UV detector using the following materials and operating parameters:
Calibration data used previously and standards analyzed prior to the samples were used to generate concentrations from peak areas.
At selected time points (10 minutes, 30 minutes, 1 hour, 2 hours, and 5 hours) the slurry was centrifuged and 700 μL of the liquid phase was withdrawn and passed through a 0.5 μm PTFE filter. The filtrate was concentrated in a purge of dry air until all the water evaporated, leaving a solid that was analyzed by HPLC. […] The pH of the filtrate was measured using a Thermo Scientific Orion 3 Star pH meter. The collected solid was analyzed by XRPD. […]
Further dissolution studies with concentration measurements at 10 minutes, 30 minutes, 1 hour, 2 hours, 5 hours, and overnight were conducted. Three such experiments were carried out, using DHEA polymorph form I (FI), the DHEA/D-fructose cocrystal, and the DHEA/glutaric acid cocrystal. […] All of the data are summarized in FIG. 10 through FIG. 14 and the data are plotted in FIG. 15 through FIG. 19.
Note that in each of the plots shown in […] the results of two experiments (time points at <10 min and time points at >10 minutes) are shown on one graph. In order to better visualize the curves, the x axes are in logarithmic scales (FIGS. 15-17). The tables shown in FIGS. 12 and 13 were derived from single experiments having time points at <10 minutes. The x axes on those plots are in linear scales (FIGS. 18 and 19).

The nature of data set [2]: Slurry of DHEA in simulated intestinal fluid, solid form by XRPD. To be noted: about 3 hrs at room temperature, XRPD 3171.
A short description of data set [3]: Dissolution of formulation slurries (Plasdone S630 + Polysorbate 80) in simulated intestinal fluid. To be noted: simulated intestinal fluid plus aqueous formulation slurry, aqueous with cosolvent or surfactant or cyclodextrin, thermodynamic from solid; SIF plus water containing 2% Plasdone S630 and 1% Polysorbate 80, 37° C.; read-out: equilibrium solubility in formulation/SIF system. On the procedure:
Simulated intestinal fluid (SIF) was prepared by dissolving 21.6 mg of sodium hydroxide, 168.8 mg of sodium dihydrogen phosphate dihydrate, 311.6 mg of sodium chloride, and 113.0 mg of SIF Powder Original (Biorelevant) in 50 mL of water. A 100-mL, round-bottom flask was charged with 10 mL of SIF and a stir bar. The flask was placed in a 37° C. bath and stirring was begun. A 20-mL vial was charged with 10 mL of water and placed in a 37° C. bath.
Based on the inhibitory effects found in the excipient screen, further studies with formulation slurries containing the cocrystals suspended in water were used, in which both Plasdone S-630 and Polysorbate 80 are dissolved. The formulation recipe and dissolution procedure are: bring 5 mL of simulated intestinal fluid (SIF) to 37° C., add about 6 mg of a cocrystal into 5 mL of water (at 37° C.) containing 2% Plasdone S630 and 1% Polysorbate 80 to give the formulation slurry, add the formulation slurry to the SIF, pull samples, filter, and analyze by HPLC. A control experiment was carried out in which DHEA was used instead of a cocrystal.
For FIGS. 44 and 45, to the […]-vial of SIF (20-mL vial was charged with 10 mL of water and placed in a 37° C. bath) 12.1 mg of DHEA (from sample TL876) was added. The vial was capped and shaken, and the resulting slurry was poured into the round-bottom flask. […] The supernatants were analyzed by HPLC. […]

Consider `C[C@]12CC[C@H](O)CC1=CC[C@@H]1[C@@H]2CC[C@]2(C)C(=O)CC[C@@H]12` [DHEA hydrate S1, Dehydroepiandrosterone], for which the solubility entry in data set [1] (listed as DHEA (form S1)) is reported as “about 17 μg/mL”. For the same molecule, in data set [1] (pH 6.8 phosphate buffer, pH 6.8, aqueous buffer, thermodynamic from solid, most stable form in the presence of water, read-out: equilibrium solubility), the solubility thermodynamic came to 17 µg/mL.

As to `C[C@]12CC[C@H](O)CC1=CC[C@@H]1[C@@H]2CC[C@]2(C)C(=O)CC[C@@H]12` [DHEA polymorph form I (FI), Dehydroepiandrosterone], the “change in concentration of DHEA with time” value in data set [1] (10 minutes, 30 minutes, 1 hour, 2 hours, 5 hours, overnight) is reported as “no change in concentration of DHEA with time”. Further, the “remaining solids after dissolution experiment” value in data set [1] (after overnight experiment) is “DHEA form S2 (monohydrate)”. In addition, the “time for transformation of anhydrate to monohydrate to be complete” value in data set [1] (aqueous dissolution study) is “about 2 hours”. In data set [1] (pH 6.8 phosphate buffer, pH 6.8, aqueous buffer, thermodynamic from solid, read-out: solubility), the solubility is ~30 µg/mL (≈ 104 µM). Moreover, the “solid form after slurrying in SIF” value in data set [2] is reported as “mostly the hydrate S1 form”.

On to `C[C@]12CC[C@H](O)CC1=CC[C@@H]1[C@@H]2CC[C@]2(C)C(=O)CC[C@@H]12` [DHEA, Dehydroepiandrosterone], for which, in data set [3], the solubility thermodynamic is 120 to 130 µg/mL.

The record behind these values is patent US10130713B2, “Cocrystalline DHEA formulations” (University of Houston System, priority 2013, dated 2018).
